These results are taken from patent US10852302B2, “Method for evaluation of function of phagocyte” (MOCHIDA PHARMACEUTICAL CO., LTD., priority 2008, dated 2020).

What all share (assay type): cell-based
Assay [1] deals with granulocyte from rabbit peritoneal cavity. The experiment in a line: Action of phagocytosis inhibitors on sCD14-ST production by rabbit granulocyte stimulated with E. coli. Conditions: inhibitor preincubated 37° C. 30 minutes, then 20 times by cell count of E. coli, 2 hours (FIG. 6). How it is done:
(§1) Two step sandwich ELISA system was constructed by using the F1301-9-1 antibody produced in Example 1-(4) for the solid phase antibody, and the F1258-7-2 Fab′-HRP antibody prepared in Example 3-(1) for the labeling antibody. More specifically, the F1301-9-1 antibody was diluted with D-PBS (pH 7.4) to 10 μg/mL, and added to the wells of immunoplate (Maxisorb, Nunc) at 50 μL/well. After allowing the reaction to proceed overnight at 4° C., the well was washed 5 times with ion exchanged water. D-PBS (pH 7.4) containing 5% StabilGuard (SurModics) and 0.1% Tween 20 was added to the wells at 200 μL/well for blocking. Next, the specimen was diluted by using 150 mM phosphate buffer (pH 6.0) containing 5% normal rabbit serum (serum from which soluble CD14 antigen has been removed by using the rabbit CD14 affinity antibody column), 1% BSA, and 0.1% Tween 20 for dilution, and the diluted specimen was added to the well at 50 μL/well and allowed to react at 25° C. for 3 hours. After completion of the reaction, the well was washed 5 times with physiological saline containing 0.05% Tween 20. The F1258-7-2 Fab′-HRP was diluted with 75 mM phosphate buffer (pH 6.4) containing 4% rat serum and 0.05% Tween 20, and added to the well at 50 μL/well. […] The reaction was ceased with 0.5M sulfuric acid solution, and absorbance at 450 nm was measured by using a plate spectrophotometer (NJ-2100, Intermed Japan). […]

Assay [2] has as its system human peripheral blood granulocyte. The experiment in a line: Action of phagocytosis inhibitors on sCD14-ST production by human granulocyte stimulated with E. coli. Conditions: inhibitor preincubated 37° C. 1 hour, then 30 times by cell count of E. coli, 2 hours (FIG. 9). The protocol:
Granulocyte fraction was prepared from peripheral blood collected from a healthy human donor by density-gradient centrifugation using two layers each having a specific gravity of d=1.077 and d=1.119.
Various leukocyte stimulants were added to the granulocyte to evaluate the amount of sCD14-ST produced. More specifically, human peripheral blood granulocyte collected in Example 7-(1) was suspended in RPMI1640 culture containing 10% healthy human serum, 2 mM Glutamin, 10 mM HEPES, and 10 ng/ml G-CSF (SIGMA R8758) to a cell concentration of 0.5×10^7 cells/mL, and added to the wells of a 96 well culture plate (Nunclon Surface, Nunc) at 100 μL/well. The granulocyte was incubated overnight at 37° C. in the presence of 5% carbon dioxide. Next, various stimulants were adjusted to 1.5 fold concentration with HBSS buffer containing 10% healthy human serum, 2 mM Glutamin, and 10 mM HEPES, and added to the well at 200 μL/well. After incubating at 37° C. for 2 hours, the supernatant was collected by centrifugation, and human sCD14-ST was measured by using the assay kit described in Example 7-(3) of WO 2005/108429. More specifically, the sandwich assay kit used was the one containing the antibody which binds to the peptide consisting the amino acid sequence of 53rd to 68th amino acid residue of the human CD14 (S68 antibody), which specifically recognizes the human sCD14-ST. […]

Assay [3] concerns granulocyte from the rabbit peritoneal cavity. Nature of the assay: High molecular weight sCD14 production by rabbit granulocyte stimulated with leukocyte stimulants. The following applies: stimulant, kit for high molecular weight sCD14 (R&D) (FIG. 5).
The test system is the same in assay [4]. Nature of the assay: sCD14-ST production by rabbit peritoneal granulocyte stimulated with leukocyte stimulants. The following applies: rabbit granulocyte 1×10^7 cells/mL, stimulant, 37° C. for 2 hours, supernatant, sandwich ELISA (FIG. 4). The protocol:
as §1, with “hours.” for “hours. After completion of the reaction, the well was washed 5 times with physiological saline containing 0.05% Tween 20. The F1258-7-2 Fab′-HRP was diluted with 75 mM phosphate buffer (pH 6.4) containing 4% rat serum and 0.05% Tween 20, and added to the well at 50 μL/well.”
Various leukocyte stimulants were added to the granulocyte to evaluate the amount of sCD14-ST produced. […] After incubating at 37° C. for 2 hours, the supernatant was collected by centrifugation and sCD14-ST was measured by the assay system of Example 3-(2).
For orientation: ELISA stands for enzyme-linked immunosorbent assay.

As for `C=C1[C@@H](C)[C@H]2[C@H](Cc3ccccc3)NC(=O)[C@]23[C@H](OC(C)=O)/C=C/[C@@](C)(O)C(=O)[C@@H](C)C/C=C/[C@H]3[C@@H]1O` [Cytochalasin D], in assay [1], the “Production of the rabbit sCD14-ST (effect of inhibitor)” value is listed as “inhibited”. Moreover, the “sCD14-ST production (effect of inhibitor)” value in assay [2] is recorded as “inhibited the sCD14-ST production”.
Regarding `CCCCCCCCCCCCCC(=O)O[C@@H]1[C@@H](C)[C@@]2(O)[C@@H](C=C(CO)C[C@]3(O)C(=O)C(C)=C[C@@H]23)[C@@H]2C(C)(C)[C@]12OC(C)=O` [PMA, phorbol myristate acetate], in assay [3], the “production of the high molecular weight sCD14” value is reported as “increase in the production of the high molecular weight sCD14 was recognized”. In assay [4], the sCD14-ST production result is “increase in the sCD14-ST was not recognized”.
`COC[C@H]1OC(=O)c2coc3c2[C@@]1(C)C1=C(C3=O)[C@@H]2CCC(=O)[C@@]2(C)C[C@H]1OC(C)=O` [Wortomanin]: the “Production of the rabbit sCD14-ST (effect of inhibitor)” value in assay [1] was “inhibited”. Further, in assay [2], the “sCD14-ST production (effect of inhibitor)” value is “inhibited the sCD14-ST production”.
`CSCC[C@H](NC=O)C(=O)N[C@@H](CC(C)C)C(=O)N[C@@H](Cc1ccccc1)C(=O)O` [fMLP, formyl methionyl leucyl phenylalanine]: the sCD14-ST production result in assay [4] is given as “increase in the sCD14-ST was not recognized”.
